Assay results as given in patent publication US9636418B2 (priority 2013, dated 2017).
“And” between values parts separate entries of the source, which are not always exact repeats. Identical values can stand only once.

Assays:
Assay in all cases: cell-based
hNav1.7 = hNav1.7 (Homo sapiens, UniProt Q15858); details: IonWorks Quattro; read-out: IC50 Nav1.7
hNav1.5 = hNav1.5 (Homo sapiens, UniProt Q14524); details: IonWorks Quattro; read-out: IC50 Nav1.5
hNav1.4 = hNav1.4 (Homo sapiens, UniProt P35499); details: IonWorks Quattro; read-out: IC50 Nav1.4
hNav1.4, sequence (P35499 whole entry): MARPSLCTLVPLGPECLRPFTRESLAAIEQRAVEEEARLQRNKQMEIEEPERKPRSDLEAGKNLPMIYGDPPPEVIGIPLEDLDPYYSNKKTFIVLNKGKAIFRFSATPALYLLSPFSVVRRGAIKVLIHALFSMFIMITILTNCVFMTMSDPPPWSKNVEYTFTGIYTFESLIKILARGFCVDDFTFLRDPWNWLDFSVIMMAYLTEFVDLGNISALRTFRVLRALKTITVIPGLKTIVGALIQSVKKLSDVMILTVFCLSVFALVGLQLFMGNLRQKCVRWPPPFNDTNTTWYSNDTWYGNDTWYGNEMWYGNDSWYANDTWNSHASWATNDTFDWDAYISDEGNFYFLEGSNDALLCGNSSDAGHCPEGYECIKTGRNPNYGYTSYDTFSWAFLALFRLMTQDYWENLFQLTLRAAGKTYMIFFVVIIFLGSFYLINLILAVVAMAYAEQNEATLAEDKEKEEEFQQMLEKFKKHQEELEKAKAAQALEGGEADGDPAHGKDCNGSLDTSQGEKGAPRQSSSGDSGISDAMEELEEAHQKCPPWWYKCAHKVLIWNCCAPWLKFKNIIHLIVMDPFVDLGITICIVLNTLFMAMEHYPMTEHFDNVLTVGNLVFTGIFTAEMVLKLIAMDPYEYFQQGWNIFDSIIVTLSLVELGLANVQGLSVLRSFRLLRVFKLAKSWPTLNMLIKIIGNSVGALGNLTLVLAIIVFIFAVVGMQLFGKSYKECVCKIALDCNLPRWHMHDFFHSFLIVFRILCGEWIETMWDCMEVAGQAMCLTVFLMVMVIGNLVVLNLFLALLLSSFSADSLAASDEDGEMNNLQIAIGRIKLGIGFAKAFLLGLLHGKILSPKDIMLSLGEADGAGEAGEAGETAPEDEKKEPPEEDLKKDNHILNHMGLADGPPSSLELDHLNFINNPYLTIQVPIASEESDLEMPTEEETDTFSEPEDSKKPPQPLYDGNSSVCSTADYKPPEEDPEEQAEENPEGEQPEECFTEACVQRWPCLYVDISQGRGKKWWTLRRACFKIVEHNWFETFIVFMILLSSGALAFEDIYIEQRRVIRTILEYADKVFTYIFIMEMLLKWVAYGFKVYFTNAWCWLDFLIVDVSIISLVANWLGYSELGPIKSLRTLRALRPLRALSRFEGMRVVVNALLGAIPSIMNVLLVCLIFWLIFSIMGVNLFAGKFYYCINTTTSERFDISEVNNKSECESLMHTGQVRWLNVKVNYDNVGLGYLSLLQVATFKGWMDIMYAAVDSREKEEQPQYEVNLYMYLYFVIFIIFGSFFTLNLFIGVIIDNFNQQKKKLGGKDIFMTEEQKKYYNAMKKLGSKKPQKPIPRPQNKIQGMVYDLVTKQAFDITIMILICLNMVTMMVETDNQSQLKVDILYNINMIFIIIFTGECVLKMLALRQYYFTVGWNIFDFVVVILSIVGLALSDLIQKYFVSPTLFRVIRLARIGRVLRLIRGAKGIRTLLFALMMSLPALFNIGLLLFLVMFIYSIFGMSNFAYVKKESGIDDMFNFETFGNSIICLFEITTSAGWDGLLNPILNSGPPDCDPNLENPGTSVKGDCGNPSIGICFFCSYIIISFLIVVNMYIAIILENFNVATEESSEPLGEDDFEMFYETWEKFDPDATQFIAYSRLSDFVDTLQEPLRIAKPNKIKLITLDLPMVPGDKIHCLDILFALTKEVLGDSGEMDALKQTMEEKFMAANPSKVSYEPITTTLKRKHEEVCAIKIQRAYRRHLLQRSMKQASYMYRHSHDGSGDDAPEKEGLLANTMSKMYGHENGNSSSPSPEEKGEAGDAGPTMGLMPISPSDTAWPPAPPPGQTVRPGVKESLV

hNav1.3 = hNav1.3 (Homo sapiens, UniProt Q9NY46); details: IonWorks Quattro; read-out: IC50 Nav1.3

hNav1.7, sequence (Q15858 whole entry): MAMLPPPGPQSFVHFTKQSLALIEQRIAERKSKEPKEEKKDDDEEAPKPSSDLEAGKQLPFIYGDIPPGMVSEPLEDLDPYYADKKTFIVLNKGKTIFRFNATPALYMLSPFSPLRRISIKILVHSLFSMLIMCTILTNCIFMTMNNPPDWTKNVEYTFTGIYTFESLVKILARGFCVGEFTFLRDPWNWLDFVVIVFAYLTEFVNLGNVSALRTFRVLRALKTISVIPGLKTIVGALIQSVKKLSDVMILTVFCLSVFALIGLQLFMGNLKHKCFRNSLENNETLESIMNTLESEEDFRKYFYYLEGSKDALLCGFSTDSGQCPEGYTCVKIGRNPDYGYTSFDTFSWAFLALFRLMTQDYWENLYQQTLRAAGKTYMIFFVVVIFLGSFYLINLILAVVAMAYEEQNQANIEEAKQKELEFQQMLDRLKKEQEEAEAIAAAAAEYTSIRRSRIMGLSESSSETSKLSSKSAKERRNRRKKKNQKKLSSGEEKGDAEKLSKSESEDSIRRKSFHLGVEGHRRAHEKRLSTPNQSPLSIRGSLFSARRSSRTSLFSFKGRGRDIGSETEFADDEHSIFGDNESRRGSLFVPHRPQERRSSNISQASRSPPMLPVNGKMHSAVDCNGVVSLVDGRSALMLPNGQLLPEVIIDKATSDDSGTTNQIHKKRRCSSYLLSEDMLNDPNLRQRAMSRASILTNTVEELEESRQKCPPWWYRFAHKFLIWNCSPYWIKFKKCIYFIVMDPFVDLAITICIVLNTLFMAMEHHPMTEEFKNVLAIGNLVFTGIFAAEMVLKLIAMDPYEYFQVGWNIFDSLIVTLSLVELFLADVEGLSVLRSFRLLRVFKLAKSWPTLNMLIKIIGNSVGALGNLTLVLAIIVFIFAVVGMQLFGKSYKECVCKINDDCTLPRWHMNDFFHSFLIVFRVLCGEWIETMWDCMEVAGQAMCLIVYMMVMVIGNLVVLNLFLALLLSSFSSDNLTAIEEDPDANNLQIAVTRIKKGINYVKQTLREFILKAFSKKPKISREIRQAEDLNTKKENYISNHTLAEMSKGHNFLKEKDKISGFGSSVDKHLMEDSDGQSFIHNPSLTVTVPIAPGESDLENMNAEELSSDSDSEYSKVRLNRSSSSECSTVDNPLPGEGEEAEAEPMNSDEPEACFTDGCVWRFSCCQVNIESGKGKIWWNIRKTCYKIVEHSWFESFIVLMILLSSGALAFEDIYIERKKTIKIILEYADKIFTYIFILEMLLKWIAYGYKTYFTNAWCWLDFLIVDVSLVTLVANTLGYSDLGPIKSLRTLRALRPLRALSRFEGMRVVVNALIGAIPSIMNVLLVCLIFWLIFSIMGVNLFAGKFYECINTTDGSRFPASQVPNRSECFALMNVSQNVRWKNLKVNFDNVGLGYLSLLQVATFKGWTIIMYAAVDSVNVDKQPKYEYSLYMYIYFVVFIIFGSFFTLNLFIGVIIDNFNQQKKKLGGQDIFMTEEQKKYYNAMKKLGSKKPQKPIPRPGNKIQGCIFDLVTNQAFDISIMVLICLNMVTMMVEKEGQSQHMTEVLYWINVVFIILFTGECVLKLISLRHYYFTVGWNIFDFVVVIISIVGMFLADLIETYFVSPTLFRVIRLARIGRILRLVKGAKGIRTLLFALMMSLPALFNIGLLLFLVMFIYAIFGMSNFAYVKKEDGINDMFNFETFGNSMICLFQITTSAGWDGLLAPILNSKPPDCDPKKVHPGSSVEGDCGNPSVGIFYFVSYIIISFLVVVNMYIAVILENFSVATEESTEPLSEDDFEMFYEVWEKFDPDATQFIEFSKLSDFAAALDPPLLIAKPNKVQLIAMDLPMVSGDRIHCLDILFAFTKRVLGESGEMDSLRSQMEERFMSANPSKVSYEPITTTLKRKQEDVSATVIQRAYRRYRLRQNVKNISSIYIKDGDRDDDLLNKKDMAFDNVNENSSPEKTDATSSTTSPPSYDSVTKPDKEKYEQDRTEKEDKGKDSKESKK

Row | SMILES | IC50 (hNav1.7) | IC50 (hNav1.5) | IC50 (hNav1.4) [µM] | IC50 (hNav1.3) [µM]
1 | CC[C@H](C)[C@H](NC(=O)[C@H](Cc1ccc(O)cc1)NC(=O)[C@H](CCCCN)NC(=O)[C@H](CCCNC(=N)N)NC(=O)[C@@H]1CSSC[C@@H]2NC(=O)[C@H](C)NC(=O)[C@H](CCCNC(=N)N)NC(=O)[C@H](CCCCN)NC(=O)[C@H](CO)NC(=O)[C@H](CC(=O)O)NC(=O)[C@@H]3CSSC[C@H](NC(=O)[C@H](CCC(=O)O)NC(=O)[C@H](CC(C)C)NC(=O)CNC(=O)[C@H](CCC(=O)O)NC(=O)[C@H](CSSC[C@H](NC(=O)[C@@H](N)Cc4ccc(O)cc4)C(=O)N[C@@H](CCC(N)=O)C(=O)N[C@@H](CCCCN)C(=O)N[C@@H](Cc4c[nH]c5ccccc45)C(=O)N[C@@H](CCSC)C(=O)N[C@@H](CO)C(=O)N[C@@H]([C@@H](C)O)C(=O)N3)NC2=O)C(=O)N[C@@H](CCCCN)C(=O)N[C@@H](CC(C)C)C(=O)N[C@@H](Cc2c[nH]c3ccccc23)C(=O)N1)C(N)=O [compound 216] | 4.7 µM and 6.6 µM | > 7 µM and 5.4 µM | > 7 | > 7
2 | CC[C@H](C)[C@H](NC(=O)[C@H](Cc1ccc(O)cc1)NC(=O)[C@H](CCCCN)NC(=O)[C@H](CCCNC(=N)N)NC(=O)[C@@H]1CSSC[C@@H]2NC(=O)[C@H](C)NC(=O)[C@H](CCCNC(=N)N)NC(=O)[C@H](CCCCN)NC(=O)[C@H](CO)NC(=O)[C@H](CC(=O)O)NC(=O)[C@@H]3CSSC[C@H](NC(=O)[C@H](CCC(=O)O)NC(=O)[C@H](CC(C)C)NC(=O)CNC(=O)[C@H](CCC(=O)O)NC(=O)[C@H](CSSC[C@H](NC(=O)[C@@H](N)Cc4ccc(O)cc4)C(=O)N[C@@H](CCC(N)=O)C(=O)N[C@@H](CCCCN)C(=O)N[C@@H](Cc4c[nH]c5ccccc45)C(=O)N[C@@H](CCSC)C(=O)N[C@@H](CCC(=O)O)C(=O)N[C@@H]([C@@H](C)O)C(=O)N3)NC2=O)C(=O)N[C@@H](CCCCN)C(=O)N[C@@H](CC(C)C)C(=O)N[C@@H](Cc2c[nH]c3ccccc23)C(=O)N1)C(N)=O [compound 217] | > 7 µM | > 7 µM | > 7 | > 7
3 | CC[C@H](C)[C@H](NC(=O)[C@H](Cc1ccc(O)cc1)NC(=O)[C@H](CCCCN)NC(=O)[C@H](CCCNC(=N)N)NC(=O)[C@@H]1CSSC[C@@H]2NC(=O)[C@H](C)NC(=O)[C@H](CCCNC(=N)N)NC(=O)[C@H](CCCCN)NC(=O)[C@H](CO)NC(=O)[C@H](CC(=O)O)NC(=O)[C@@H]3CSSC[C@H](NC(=O)[C@H](CCC(=O)O)NC(=O)[C@H](CC(C)C)NC(=O)CNC(=O)[C@H](CCC(=O)O)NC(=O)[C@H](CSSC[C@H](NC(=O)[C@@H](N)Cc4ccc(O)cc4)C(=O)N[C@@H](CCC(N)=O)C(=O)N[C@@H](CCCCN)C(=O)N[C@@H](Cc4c[nH]c5ccccc45)C(=O)N[C@@H](CCSC)C(=O)N[C@@H](Cc4c[nH]c5ccccc45)C(=O)N[C@@H]([C@@H](C)O)C(=O)N3)NC2=O)C(=O)N[C@@H](CCCCN)C(=O)N[C@@H](CC(C)C)C(=O)N[C@@H](Cc2ccc3ccccc3c2)C(=O)N1)C(N)=O [compound 219] | 0.86 µM and 1 µM | > 7 µM | > 7 | > 7
4 | CC[C@H](C)[C@H](NC(=O)[C@H](Cc1ccc(O)cc1)NC(=O)[C@H](CCCCN)NC(=O)[C@H](CCCNC(=N)N)NC(=O)[C@@H]1CSSC[C@@H]2NC(=O)[C@H](C)NC(=O)[C@H](CCCNC(=N)N)NC(=O)[C@H](CCCCN)NC(=O)[C@H](CO)NC(=O)[C@H](CC(=O)O)NC(=O)[C@@H]3CSSC[C@H](NC(=O)[C@H](CCC(=O)O)NC(=O)[C@H](CC(C)C)NC(=O)CNC(=O)[C@H](CCC(=O)O)NC(=O)[C@H](CSSC[C@H](NC(=O)[C@@H](N)Cc4ccc(O)cc4)C(=O)N[C@@H](CCC(N)=O)C(=O)N[C@@H](CCCCN)C(=O)N[C@@H](Cc4c[nH]c5ccccc45)C(=O)N[C@@H](CCSC)C(=O)N[C@@H](Cc4c[nH]c5ccccc45)C(=O)N[C@@H]([C@@H](C)O)C(=O)N3)NC2=O)C(=O)N[C@@H](CCCCN)C(=O)N[C@@H](CC(C)C)C(=O)N[C@@H](C(C)C)C(=O)N1)C(N)=O [compound 223] | > 5 µM | > 5 µM | > 5 | > 5
5 | CC[C@H](C)[C@H](NC(=O)[C@H](Cc1ccc(O)cc1)NC(=O)[C@H](CCCCN)NC(=O)[C@H](CCCNC(=N)N)NC(=O)[C@@H]1CSSC[C@@H]2NC(=O)[C@H](C)NC(=O)[C@H](CCCNC(=N)N)NC(=O)[C@H](CCCCN)NC(=O)[C@H](CO)NC(=O)[C@H](CC(=O)O)NC(=O)[C@@H]3CSSC[C@H](NC(=O)[C@H](CCC(=O)O)NC(=O)[C@H](CC(C)C)NC(=O)CNC(=O)[C@H](CCC(=O)O)NC(=O)[C@H](CSSC[C@H](NC(=O)[C@@H](N)Cc4ccc(O)cc4)C(=O)N[C@@H](CCC(N)=O)C(=O)N[C@@H](CCCCN)C(=O)N[C@@H](Cc4c[nH]c5ccccc45)C(=O)N[C@@H](CCSC)C(=O)N[C@@H](Cc4c[nH]c5ccccc45)C(=O)N[C@@H]([C@@H](C)O)C(=O)N3)NC2=O)C(=O)N[C@@H](CCCCN)C(=O)N[C@@H](CC(C)C)C(=O)N[C@@H](CC(C)C)C(=O)N1)C(N)=O [compound 224] | > 5 µM | > 5 µM | > 5 | > 5
6 | CCCC[C@@H]1NC(=O)[C@H](CC(C)C)NC(=O)[C@H](CCCCN)NC(=O)[C@@H]2CSSC[C@@H]3NC(=O)[C@H]([C@@H](C)O)NC(=O)[C@H](Cc4c[nH]c5ccccc45)NC(=O)[C@H](CCSC)NC(=O)[C@H](Cc4c[nH]c5ccccc45)NC(=O)[C@H](CCCCN)NC(=O)[C@H](CCC(N)=O)NC(=O)[C@@H](NC(=O)[C@@H](N)Cc4ccc(O)cc4)CSSC[C@H](NC(=O)[C@H](CSSC[C@@H](C(=O)N[C@@H](CCCNC(=N)N)C(=O)N[C@@H](CCCCN)C(=O)N[C@@H](Cc4ccc(O)cc4)C(=O)N[C@H](C(N)=O)[C@@H](C)CC)NC1=O)NC(=O)[C@H](C)NC(=O)[C@H](CCCNC(=N)N)NC(=O)[C@H](CCCCN)NC(=O)[C@H](CO)NC(=O)[C@H](CC(=O)O)NC3=O)C(=O)N[C@@H](CCC(=O)O)C(=O)NCC(=O)N[C@@H](CC(C)C)C(=O)N[C@@H](CCC(=O)O)C(=O)N2 [compound 225] | > 5 µM | > 5 µM | > 5 | > 5
7 | CCC[C@@H]1NC(=O)[C@H](CC(C)C)NC(=O)[C@H](CCCCN)NC(=O)[C@@H]2CSSC[C@@H]3NC(=O)[C@H]([C@@H](C)O)NC(=O)[C@H](Cc4c[nH]c5ccccc45)NC(=O)[C@H](CCSC)NC(=O)[C@H](Cc4c[nH]c5ccccc45)NC(=O)[C@H](CCCCN)NC(=O)[C@H](CCC(N)=O)NC(=O)[C@@H](NC(=O)[C@@H](N)Cc4ccc(O)cc4)CSSC[C@H](NC(=O)[C@H](CSSC[C@@H](C(=O)N[C@@H](CCCNC(=N)N)C(=O)N[C@@H](CCCCN)C(=O)N[C@@H](Cc4ccc(O)cc4)C(=O)N[C@H](C(N)=O)[C@@H](C)CC)NC1=O)NC(=O)[C@H](C)NC(=O)[C@H](CCCNC(=N)N)NC(=O)[C@H](CCCCN)NC(=O)[C@H](CO)NC(=O)[C@H](CC(=O)O)NC3=O)C(=O)N[C@@H](CCC(=O)O)C(=O)NCC(=O)N[C@@H](CC(C)C)C(=O)N[C@@H](CCC(=O)O)C(=O)N2 [compound 226] | > 5 µM | > 5 µM | > 5 | > 5
